Values quoted from earlier work, collected in article PMC5879685 (Proceedings of the National Academy of Sciences of the …, 2018).

Row | Structure (SMILES) | Effect on CNGC (CNGC) | Effect on PKG (PKG)
1 | Nc1nc2c(ncn2[C@@H]2O[C@@H]3COP(O)(=S)O[C@H]3[C@H]2O)c(=O)[nH]1 (single isomer, unassigned) [B, Guanosine-3′,5′-cyclic monophosphorothioate, RP-isomer] | + | −
2 | Nc1nc2c(nc(Br)n2[C@@H]2O[C@@H]3COP(O)(=S)O[C@H]3[C@H]2O)c(=O)[nH]1 (single isomer, unassigned) [C, 8-bromoguanosine-3′,5′-cyclic monophosphorothioate, RP-isomer] | + | −
3 | Nc1nc2c(ncn2[C@@H]2O[C@@H]3COP(=O)(O)O[C@H]3[C@H]2O)c(=O)[nH]1 [Compound A, Guanosine-3′,5′-cyclic monophosphate] | + | +
